Here are results for 29 compounds from patent US10988478B1, “Pyrazolo[1,5a]pyrimidine derivatives as IRAK4 modulators” (Genentech, Inc., priority 2015, dated 2021).

In general, Ki refers to a measure of affinity in units of concentration, obtained from inhibition or displacement.

The target in this assay is human IRAK4 (Homo sapiens (Human), UniProt Q9NWZ3). Nature of the assay: IRAK4 kinase inhibition, Transcreener fluorescence polarization ADP assay. The settings on record: recombinant full-length His6-IRAK4; 125 uM ATP; 90 min; Ki computed using ATP Km 642 uM. It counts as biochemical. As for the experimental part: Compounds were assayed for inhibition of human IRAK4 and IRAK1 catalytic activity using recombinant enzyme produced from insect cells. Full-length IRAK4 protein, carrying an N-terminal His6-Tag, was obtained from Life Technologies (Carlsbad, Calif., USA). The IRAK1 construct was produced internally and was comprised of IRAK1 residues Arg194 to Ser712, preceded by an NH2-terminal His6 tag and the coding sequence for glutathione-S-transferase.
Sequence of human IRAK4 (Q9NWZ3 whole entry, the tested form may be a part): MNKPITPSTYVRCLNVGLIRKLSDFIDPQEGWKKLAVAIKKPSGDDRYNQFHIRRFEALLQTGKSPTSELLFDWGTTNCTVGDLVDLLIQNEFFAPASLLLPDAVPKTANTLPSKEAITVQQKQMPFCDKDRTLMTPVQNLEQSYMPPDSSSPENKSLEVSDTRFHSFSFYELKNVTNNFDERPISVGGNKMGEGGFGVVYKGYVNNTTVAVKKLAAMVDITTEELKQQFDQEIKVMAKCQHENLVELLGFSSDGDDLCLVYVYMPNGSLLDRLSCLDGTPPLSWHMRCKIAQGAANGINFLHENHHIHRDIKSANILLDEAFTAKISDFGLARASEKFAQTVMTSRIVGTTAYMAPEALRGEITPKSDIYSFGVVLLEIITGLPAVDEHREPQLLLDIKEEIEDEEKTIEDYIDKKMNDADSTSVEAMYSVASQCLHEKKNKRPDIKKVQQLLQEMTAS
In general terms: Polarisation of emitted light reports the rotation of a fluorescent probe.
Regarding `CC1(C)Cc2cc(NC(=O)c3cnn4cccnc34)c(N3C[C@H]4CCC(F)(F)[C@H]4C3)cc2O1` [Example 200, N-(6-((3aR,6aS)-4,4-difluorohexahydrocyclopenta[c]pyrrol-2(1H)-yl)-2,2-dimethyl-2,3-dihydrobenzofuran-5-yl)pyrazolo[1,5-a]pyrimidine-3-carboxamide], the Ki was found to be 0.022 µM.
In the case of `CC1(C)Cc2cc(NC(=O)c3cnn4cccnc34)c(N3CCCC3CO)cc2O1` (centres unmarked) [Example 201, N-(6-(2-(hydroxymethyl)pyrrolidin-1-yl)-2,2-dimethyl-2,3-dihydrobenzofuran-5-yl)pyrazolo[1,5-a]pyrimidine-3-carboxamide] it was 0.028 µM; in that of `CC1(C)Cc2cc(NC(=O)c3cnn4cccnc34)c(N3CCCC(c4ncc[nH]4)C3)cc2O1` (centres unmarked) [Example 202, N-(6-(3-(1H-imidazol-2-yl)piperidin-1-yl)-2,2-dimethyl-2,3-dihydrobenzofuran-5-yl)pyrazolo[1,5-a]pyrimidine-3-carboxamide], 0.69 µM; in that of `CC1(C)Cc2cc(NC(=O)c3cnn4cccnc34)c(N3C[C@@H](F)[C@@H](F)C3)cc2O1` [Example 203, N-(6-((3R,4S)-3,4-difluoropyrrolidin-1-yl)-2,2-dimethyl-2,3-dihydrobenzofuran-5-yl)pyrazolo[1,5-a]pyrimidine-3-carboxamide], 0.015 µM.
With `CC1(C)Cc2cc(NC(=O)c3cnn4cccnc34)c(N3CC4(CCC4(F)F)C3)cc2O1` [Example 204, N-(6-(5,5-difluoro-2-azaspiro[3.3]heptan-2-yl)-2,2-dimethyl-2,3-dihydrobenzofuran-5-yl)pyrazolo[1,5-a]pyrimidine-3-carboxamide] the figure was 0.73 µM; with `CN(Cc1ccc(C#N)cc1)c1cc2c(cc1NC(=O)c1cnn3cccnc13)CC(C)(C)O2` [Example 205, N-(6-((4-cyanobenzyl)(methyl)amino)-2,2-dimethyl-2,3-dihydrobenzofuran-5-yl)pyrazolo[1,5-a]pyrimidine-3-carboxamide], 0.086 µM; with `CC1(C)Cc2cc(NC(=O)c3cnn4cccnc34)c(N3CCC(n4ccnc4)CC3)cc2O1` [Example 206, N-(6-(4-(1H-imidazol-1-yl)piperidin-1-yl)-2,2-dimethyl-2,3-dihydrobenzofuran-5-yl)pyrazolo[1,5-a]pyrimidine-3-carboxamide], 0.0034 µM.
With `CC1(C)Cc2cc(NC(=O)c3cnn4cccnc34)c(N3CCCC(F)(F)CC3)cc2O1` [Example 207, N-(6-(4,4-difluoroazepan-1-yl)-2,2-dimethyl-2,3-dihydrobenzofuran-5-yl)pyrazolo[1,5-a]pyrimidine-3-carboxamide] the figure was 0.017 µM.
Turning to `CC1(C)Cc2cc(NC(=O)c3cnn4cccnc34)c(N3C[C@@H]4[C@H](C3)[C@H]4C(N)=O)cc2O1` [Example 208, N-(6-((1R,5S,6r)-6-carbamoyl-3-azabicyclo[3.1.0]hexan-3-yl)-2,2-dimethyl-2,3-dihydrobenzofuran-5-yl)pyrazolo[1,5-a]pyrimidine-3-carboxamide], the Ki was found to be 0.015 µM.
In the case of `CNC(=O)[C@H]1[C@@H]2CN(c3cc4c(cc3NC(=O)c3cnn5cccnc35)CC(C)(C)O4)C[C@@H]21` [Example 212, N-(2,2-dimethyl-6-((1R,5S,6r)-6-(methylcarbamoyl)-3-azabicyclo[3.1.0]hexan-3-yl)-2,3-dihydrobenzofuran-5-yl)pyrazolo[1,5-a]pyrimidine-3-carboxamide] it was 0.056 µM.
With `CC1(C)Cc2cc(NC(=O)c3cnn4cccnc34)c(N3CCC4(CC3)CNC(=O)C4)cc2O1` [Example 213, N-(2,2-dimethyl-6-(3-oxo-2,8-diazaspiro[4.5]decan-8-yl)-2,3-dihydrobenzofuran-5-yl)pyrazolo[1,5-a]pyrimidine-3-], the Ki turned out to be 0.003 µM.
As to `CC1(C)Cc2cc(NC(=O)c3cnn4cccnc34)c(N3CCCC3)cc2O1` [Example 214, N-(2,2-dimethyl-6-(pyrrolidin-1-yl)-2,3-dihydrobenzofuran-5-yl)pyrazolo[1,5-a]pyrimidine-3-carboxamide], the Ki was 0.012 µM.
With `CC1(C)Cc2cc(NC(=O)c3cnn4cccnc34)c(N3CC4C(CO)C4C3)cc2O1` (centres unmarked) [Example 215, N-(6-(6-(hydroxymethyl)-3-azabicyclo[3.1.0]hexan-3-yl)-2,2-azabicyclo[3.1.0]dimethyl-2,3-dihydrobenzofuran-5-yl)pyrazolo[1,5-a]pyrimidine-3-carboxamide] the figure was 0.0054 µM; with `CC1(C)Cc2cc(NC(=O)c3cnn4cccnc34)c(N3CCC(C#N)CC3)cc2O1` [Example 216, N-(6-(4-cyanopiperidin-1-yl)-2,2-dimethyl-2,3-dihydrobenzofuran-5-yl)pyrazolo[1,5-a]pyrimidine-3-carboxamide], 0.003 µM; with `CC1(C)Cc2cc(NC(=O)c3cnn4cccnc34)c(N3CCC(F)(F)C3)cc2O1` [Example 217, N-(6-(3,3-difluoropyrrolidin-1-yl)-2,2-dimethyl-2,3-dihydrobenzofuran-5-yl)pyrazolo[1,5-a]pyrimidine-3-carboxamide], 0.015 µM.
In the case of `CC1(C)Cc2cc(NC(=O)c3cnn4cccnc34)c(N3CCC(C(F)(F)F)CC3)cc2O1` [Example 218, N-(2,2-dimethyl-6-(4-(trifluoromethyl)piperidin-1-yl)-2,3-dihydrobenzofuran-5-yl)pyrazolo[1,5-a]pyrimidine-3-carboxamide] it was 0.017 µM.
Consider `CC(C)C(=O)N1CCN(c2cc3c(cc2NC(=O)c2cnn4cccnc24)CC(C)(C)O3)CC1` [Example 219, N-(6-(4-isobutyrylpiperazin-1-yl)-2,2-dimethyl-2,3-dihydrobenzofuran-5-yl)pyrazolo[1,5-a]pyrimidine-3-carboxamide], for which the Ki came out at 0.082 µM.
As to `CC(=O)N1CCCN(c2cc3c(cc2NC(=O)c2cnn4cccnc24)CC(C)(C)O3)CC1` [Example 220, N-(6-(4-acetyl-1,4-diazepan-1-yl)-2,2-dimethyl-2,3-dihydrobenzofuran-5-yl)pyrazolo[1,5-a]pyrimidine-3-carboxamide], the Ki is 0.075 µM.
With `CN1CCN(c2cc3c(cc2NC(=O)c2cnn4cccnc24)CC(C)(C)O3)CC(O)C1` (centres unmarked) [Example 224, N-[6-(6-hydroxy-4-methyl-1,4-diazepan-1-yl)-2,2-dimethyl-3H-benzofuran-5-yl]pyrazolo[1,5-a]pyrimidine-3-carboxamide] the figure was 0.33 µM; with `CC(C)NC(=O)CN1CCN(c2cc3c(cc2NC(=O)c2cnn4cccnc24)CC(C)(C)O3)CC1` [Example 225, N-(6-(4-(2-(Isopropylamino)-2-oxoethyl)piperazin-1-yl)-2,2-dimethyl-2,3-dihydrobenzofuran-5-yl)pyrazolo[1,5-a]pyrimidine-3-carboxamide], 0.045 µM; with `CC1(C)Cc2cc(NC(=O)c3cnn4cccnc34)c(N3CCN(C(C)(C)C(N)=O)CC3)cc2O1` [Example 226, N-(6-(4-(1-Amino-2-methyl-1-oxopropan-2-yl)piperazin-1-yl)-2,2-dimethyl-2,3-dihydrobenzofuran-5-yl)pyrazolo[1,5-a]pyrimidine-3-carboxamide], 0.006 µM.
In the case of `C[C@@H]1CN(c2cc3c(cc2NC(=O)c2cnn4cccnc24)CC(C)(C)O3)C[C@H](C)N1CC(N)=O` [Example 227, N-(6-((3R,5S)-4-(2-Amino-2-oxoethyl)-3,5-dimethylpiperazin-1-yl)-2,2-dimethyl-2,3-dihydrobenzofuran-5-yl)pyrazolo[1,5-a]pyrimidine-3-carboxamide] it was 0.49 µM; in that of `CC1(C)Cc2cc(NC(=O)c3cnn4cccnc34)c(N3CCN(CC(=O)N4CCOCC4)CC3)cc2O1` [Example 228, N-(2,2-Dimethyl-6-(4-(2-morpholino-2-oxoethyl)piperazin-1-yl)-2,3-dihydrobenzofuran-5-yl)pyrazolo[1,5-a]pyrimidine-3-carboxamide], 0.048 µM.
With `Cc1nccc(C2CCN(c3cc4c(cc3NC(=O)c3cnn5cccnc35)CC(C)(C)O4)C2)n1` (centres unmarked) [Example 229, N-(2,2-Dimethyl-6-(3-(2-methylpyrimidin-4-yl)pyrrolidin-1-yl)-2,3-dihydrobenzofuran-5-yl)pyrazolo[1,5-a]pyrimidine-3-carboxamide], the Ki worked out at 0.26 µM.
With `CC1(C)Cc2cc(NC(=O)c3cnn4cccnc34)c(N3CCN(CC4CCCO4)CC3)cc2O1` (centres unmarked) [Example 230, N-(2,2-Dimethyl-6-(4-((tetrahydrofuran-2-yl)methyl)piperazin-1-yl)-2,3-dihydrobenzofuran-5-yl)pyrazolo[1,5-a]pyrimidine-3-carboxamide] the figure was 0.018 µM.
Regarding `CC1(C)Cc2cc(NC(=O)c3cnn4cccnc34)c(N3CCN(CCn4ccnc4)CC3)cc2O1` [Example 231, N-(6-(4-(2-(1H-Imidazo1-1-yl)ethyl)piperazin-1-yl)-2,2-dimethyl-2,3-dihydrobenzofuran-5-yl)pyrazolo[1,5-a]pyrimidine-3-carboxamide], the Ki stood at 0.003 µM.
Consider `CN(C)C(=O)CN1CCN(c2cc3c(cc2NC(=O)c2cnn4cccnc24)CC(C)(C)O3)CC1` [Example 232, N-(6-(4-(2-(Dimethylamino)-2-oxoethyl)piperazin-1-yl)-2,2-dimethyl-2,3-dihydrobenzofuran-5-yl)pyrazolo[1,5-a]pyrimidine-3-carboxamide], for which the Ki was found to be 0.034 µM.
In the case of `CC1(C)Cc2cc(NC(=O)c3cnn4cccnc34)c(N3CCn4ccnc4C3)cc2O1` [Example 233] it was 0.1 µM; in that of `CC1(C)Cc2cc(NC(=O)c3cnn4cccnc34)c(N3CC4CCOC4C3)cc2O1` (centres unmarked) [Example 234, N-(6-(Hexahydro-5H-furo[2,3-c]pyrrol-5-yl)-2,2-dimethyl-2,3-dihydrobenzofuran-5-yl)pyrazolo[1,5-a]pyrimidine-3-carboxamide], 0.033 µM.
